# Assay results as given in patent US20210238139A1, “MODULATORS OF TRYPTOPHAN CATABOLISM” (E-Therapeutics PLC, priority 2018, published 2021).
# pIC50: −log10 of the molar value. “And” between values parts separate entries of the source, which are not always exact repeats. Identical values can stand only once.
# Assays:
# [1] = test system: SK-OV-3 cells; assay: Effect of compounds on tryptophan catabolism in SK-OV-3 cell line (inhibition of kynurenine production, LC-MS/MS); assay type: cell-based; conditions: Homo sapiens, SK-OV-3, 24 h, SK-OV-3 cell line, 24 h incubation, kynurenine in supernatant by LC-MS/MS; read-out: IC50 Ranges (ic50 values for inhibition of Kynurenine production)
# Method in brief: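 Cells seeded overnight in McCoy's 5A/10% FBS, then switched to DMEM F-12 with 6 mg/mL L-tryptophan; compounds added at 8 3-fold dilutions from 30 μM, in duplicate, 24 h at 37 °C. Supernatant kynurenine measured by LC-MS/MS; ATP-based viability run in parallel; IC50 from % inhibition of Kyn production.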
# [2] = biological target: T1, IDO1 enzyme (Homo sapiens, UniProt P14902); assay: IDO1 enzyme inhibition assay (hIDO assay kit, NFK-green); conditions: IDO1 enzyme 25 nM, tryptophan 100 μM, top concentration 30 μM; read-out: IDO1 Biochemical assay IC50
# T1 construct: purchased Netherlands Translational Research Center B.V. NTRC-hIDO-1K
# T1 sequence (P14902 whole entry): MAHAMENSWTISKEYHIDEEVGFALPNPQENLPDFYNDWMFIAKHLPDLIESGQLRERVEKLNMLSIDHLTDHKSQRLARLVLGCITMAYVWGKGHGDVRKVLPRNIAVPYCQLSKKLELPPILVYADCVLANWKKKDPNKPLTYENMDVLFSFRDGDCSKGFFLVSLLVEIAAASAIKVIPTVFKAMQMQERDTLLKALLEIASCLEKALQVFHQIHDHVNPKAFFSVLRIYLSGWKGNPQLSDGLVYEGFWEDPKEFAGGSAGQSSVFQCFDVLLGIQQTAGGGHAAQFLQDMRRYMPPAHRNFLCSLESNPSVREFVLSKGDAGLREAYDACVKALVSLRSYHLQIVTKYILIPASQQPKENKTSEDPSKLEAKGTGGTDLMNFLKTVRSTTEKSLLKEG
# Description: The effect of compounds on IDO1 enzymatic activity was assessed by use of a hIDO assay kit (Netherlands Translational Research Center B.V., Cat #NTRC-hIDO-1K). IDO1 enzyme and tryptophan substrate are diluted in assay buffer. Compounds are tested at 8 consecutive 3-fold dilutions starting from 30 μM. 267 nL of compound is added per well of a 384-well plate followed by addition of 10 μL of assay buffer. IDO1 enzyme is added at a final concentration of 25 nM and pre-incubated for 30 min at room temperature in the dark. Tryptophan substrate solution is then added at final concentration of 100 μM to all wells and the plate incubated for 60 min at RT in the dark. Finally NFK-green reagent is added at ⅕ of total reaction volume and incubated for 4 h at RT in the dark. After incubation fluorescence is measured at Ex405 nm-Em535 nm using EnVision plate reader.
# (§1) IC50 values are determined using GraphPad Prism software 5.04 for Windows by plotting percent of inhibition against log 10 concentrations of compounds using a four-parametric sigmoidal curve with a variable slope.
# [3] = biological target: T2, TDO2 enzyme (Homo sapiens, UniProt P48775); assay: TDO2 enzyme inhibition assay (hTDO2 assay kit, NFK-green); conditions: TDO2 enzyme 50 nM, tryptophan 200 μM, top concentration 30 μM; read-out: TDO2 Biochemical assay IC50
# T2 construct: purchased Netherlands Translational Research Center B.V. NTRC-hTDO-1K
# T2 sequence (P48775 whole entry): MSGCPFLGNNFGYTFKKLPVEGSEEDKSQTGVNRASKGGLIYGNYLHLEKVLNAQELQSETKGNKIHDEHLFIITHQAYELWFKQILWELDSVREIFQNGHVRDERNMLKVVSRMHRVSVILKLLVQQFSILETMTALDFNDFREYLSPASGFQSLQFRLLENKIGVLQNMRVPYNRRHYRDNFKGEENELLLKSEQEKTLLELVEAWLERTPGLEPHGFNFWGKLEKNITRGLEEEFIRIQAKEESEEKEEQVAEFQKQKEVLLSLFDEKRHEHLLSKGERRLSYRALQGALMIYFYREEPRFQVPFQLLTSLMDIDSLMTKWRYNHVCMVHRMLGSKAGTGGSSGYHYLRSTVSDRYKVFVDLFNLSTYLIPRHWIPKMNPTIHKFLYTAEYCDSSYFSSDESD
# Description: The effect of compounds on TDO2 enzymatic activity was assess by use of an hTDO2 assay kit (Netherlands Translational Research Center B.V., Cat #NTRC-hTDO-1K). TDO2 enzyme and tryptophan substrate are diluted in assay buffer. Compounds are tested at 8 consecutive 3-fold dilutions starting from 30 μM. 267 nL of compound is added per well of a 384-well plate followed by addition of 10 μL of assay buffer. TDO2 enzyme is added at a final concentration of 50 nM and pre-incubated for 60 min at room temperature in the dark. Tryptophan substrate solution is then added at final concentration of 200 μM to all wells and the plate incubated for 15 min at RT in the dark. Finally NFK-green reagent is added at ⅕ of total reaction volume and incubated for 4 h at RT in the dark. After incubation fluorescence is measured at Ex405 nm-Em535 nm using EnVision plate reader.
# as §1
# [4] = test system: monocyte-derived dendritic cells; assay: Effect of compounds on tryptophan catabolism in monocyte-derived dendritic cells (kynurenine production); assay type: cell-based; conditions: Homo sapiens, Dendritic cell; dendritic cells triggered with LPS and IFNγ, 24 h with compound
# Description: (§2) Peripheral blood mononuclear cells are isolated from buffy coats from healthy volunteers by Lymphoprep density gradient centrifugation, followed by lysis of residual erythrocytes with isotonic buffer solution of ammonium chloride. CD14+ cells are isolated by positive selection using MACS® technology and CD14 MicroBeads (Miltenyi Biotec) according to manufacturer's instructions. The isolated monocytes are differentiated into dendritic cells by incubation for 5 days in RPMI-1640 medium supplemented with 10% fetal bovine serum (FBS), 50 ng/mL GM-CSF and 35 ng/mL IL-4. After 5 days the DCs are seeded in 96-well plates in DMEM supplemented with 10% charcoal stripped FBS, GM-CSF and IL-4. The following day cells are triggered with LPS and IFNγ. After 24 h of incubation medium is replaced with DMEM F-12 medium supplemented with 6 mg/mL L-tryptophan and 10% charcoal stripped FBS. Compounds are added to the cells and incubated for 24 h at 37° C., 5% CO2, 95% humidity. Compounds are tested at 7 consecutive 4-fold dilutions starting from 30 μM in duplicate.
# (§3) At the end of incubation concentration of kynurenine in cell supernatants is determined by LC-MS/MS. In parallel, cell viability is assessed by measurement of ATP by use of CellTiter Glo assay (Promega) according to manufacturer's protocol.
# Inhibition of Kyn production is calculated using the following formula:
# (1−(Kyn conc. cmpd.−Kyn conc. medium)/(Kyn conc. medium with cells−Kyn conc. medium))·100
# IC50 values are determined using GraphPad Prism software 5.04 for Windows, by plotting percent of inhibition against log 10 concentrations of compounds using a four-parametric sigmoidal curve with a variable slope.
# [5] = test system: monocyte-derived dendritic cells; assay: Cell viability / cytotoxicity in monocyte-derived dendritic cells (ATP, CellTiter Glo); assay type: cell-based, human; conditions: 24 h, unit assumed
# Description: as §2, §3
# Cell viability results are analysed in Microsoft Excel and expressed as fold change over untreated control.
SMILES,pIC50 [1],pIC50 [2],pIC50 [3],pIC50 [4],Cell viability at 30 uM (% of untreated control) [5] [%]
"CCc1ccc(NC(=O)N(Cc2cccs2)C2CCCC2)cc1 [Compound 3, 1-cyclopentyl-3-(4-ethylphenyl)-1-(2-thienylmethyl)urea]",6.30 to 7.00,< 4.52,< 4.52,,
"Cc1ccc(CN(C(=O)NCCc2ccccc2)C2CCCC2)s1 [Compound 26, 1-cyclopentyl-1-[(5-methyl-2-thienyl)methyl]-3-(2-phenylethyl)urea]",> 7.00,,,7.00,19
"O=C(Nc1ccc(Cl)cc1)N(Cc1cccs1)C1CCCC1 [Compound 56, 3-(4-chlorophenyl)-1-cyclopentyl-1-(2-thienylmethyl)urea]",> 7.00,,,6.60,94
"Cc1ccc(CN(C(=O)Nc2ccc(F)cc2)C2CCC2)o1 [Compound 82, 1-cyclobutyl-3-(4-fluorophenyl)-1-[(5-methyl-2-furyl)methyl]urea]",6.30 to 7.00,,,6.52,85
"Cc1ccc(CN(C(=O)Nc2ccc(C#N)cc2)C2CCC2)o1 [Compound 84, 3-(4-cyanophenyl)-1-cyclobutyl-1-[(5-methyl-2-furyl)methyl]urea]",> 7.00,,,6.74,108
"N#Cc1ccc(NC(=O)N(Cc2cccc(C(F)(F)F)c2)C2CCCC2)cc1 [Compound 89, 3-(4-cyanophenyl)-1-cyclopentyl-1-[[3-(trifluoromethyl)phenyl]methyl]urea]",> 7.00,,,7.19,81
"N#Cc1ccc(NC(=O)N(Cc2cccc(C(F)(F)F)c2)C2CCC2)cc1 [Compound 91, 3-(4-cyanophenyl)-1-cyclobutyl-1-[[3-(trifluoromethyl)phenyl]methyl]urea]",> 7.00,,,7.44,71
"Cc1ccc(CN(C(=O)Nc2ccc(C#CC(C)(C)O)cc2)C2CCCC2)o1 [Compound 109, 1-cyclopentyl-3-[4-(3-hydroxy-3-methyl-but-1-ynyl)phenyl]-1-[(5-methyl-2-furyl)methyl]urea]",5.30 to 6.00,< 4.52,5.22,,
"Cc1ccc(CN(C(=O)Nc2ccc(C#CCO)cc2)C2CCCC2)o1 [Compound 111, 1-cyclopentyl-3-[4-(3-hydroxyprop-1-ynyl)phenyl]-1-[(5-methyl-2-furyl)methyl]urea]",> 7.00,< 4.52,5.32 and 5.66,,
"O=C(Nc1ccc(F)c(F)c1)N(Cc1ccc(F)c(C(F)(F)F)c1)C1CCCC1 [Compound 139, 1-cyclopentyl-3-(3,4-difluorophenyl)-1-[[4-fluoro-3-(trifluoromethyl)phenyl]methyl]urea]",> 7.00,,,6.57,77
"O=C(Nc1ccc(F)c(F)c1)N(Cc1cccc(C(F)(F)F)c1)C1CCCC1 [Compound 140, 1-cyclopentyl-3-(3,4-difluorophenyl)-1-[[3(trifluoromethyl)phenyl]methyl]urea]",> 7.00,,,6.49,92
"O=C(Nc1ccc(F)c(F)c1)N(Cc1ccc(F)c(OC(F)(F)F)c1)C1CCCC1 [Compound 141, 1-cyclopentyl-3-(3,4-difluorophenyl)-1-[[4-fluoro-3 (trifluoromethoxy)phenyl]methyl]urea]",> 7.00,,,6.33,90
"N#Cc1cc(CN(C(=O)Nc2ccc(Cl)cc2)C2CCCC2)ccc1F [Compound 146, 3-(4-chlorophenyl)-1-[(3-cyano-4-fluoro-phenyl)methyl]-1-cyclopentyl-urea]",> 7.00,,,6.92,103
CC#Cc1ccc(NC(=O)N(Cc2ccc(C)o2)C2CCCC2)cc1 [Compound 154],> 7.00,< 4.52,< 4.52,,
"Cc1ccc(CN(C(=O)Nc2ccc(C3=CCN(C(=O)OC(C)(C)C)C3)cc2)C2CCCC2)o1 [Compound 158, tert-butyl 3-[4-[[cyclopentyl-[(5-methyl-2-furyl)methyl]carbamoyl]amino]phenyl]-2,5-dihydropyrrole-1-carboxylate]",6.00 to 6.30,< 4.52,5.19,,
"COCC#Cc1ccc(NC(=O)N(Cc2ccc(C)o2)C2CCCC2)cc1 [Compound 162, 1-cyclopentyl-3-[4-(3-methoxyprop-1-ynyl)phenyl]-1-[(5-methyl-2-furyl)methyl]urea]",> 7.00,< 4.52,< 4.52,,
"Cc1ccc(CN(C(=O)Nc2ccc(Cl)cc2)c2ccnn2C)o1 [Compound 220, 3-(4-chlorophenyl)-1-[(5-methyl-2-furyl)methyl]-1-(2-methylpyrazol-3-yl)urea]",< 5.30,< 4.52,,,
"Cc1ccc(CN(C(=O)Nc2ccc(Cl)cc2)c2cnoc2C)o1 [Compound 256, 3-(4-chlorophenyl)-1-[(5-methyl-2-furyl)methyl]-1-(5-methylisoxazol-4-yl)urea]",> 7.00,< 4.52,,,
"Cc1ccc(CN(C(=O)Nc2ccc(C#N)cc2)c2cnoc2C)o1 [Compound 257, 3-(4-cyanophenyl)-1-[(5-methyl-2-furyl)methyl]-1-(5-methylisoxazol-4-yl)urea]",> 7.00,< 4.52,,,
"O=C(Nc1ccc(Cl)cc1)N(Cc1cn2ccsc2n1)C1CCC1 [Compound 269, 3-(4-chlorophenyl)-1-cyclobutyl-1-(imidazo[2,1-b]thiazol-6-ylmethyl)urea]",6.30 to 7.00,< 4.52,,,
"N#Cc1ccc(NC(=O)N(Cc2cn3ccsc3n2)C2CCC2)cc1 [Compound 270, 3-(4-cyanophenyl)-1-cyclobutyl-1-(imidazo[2,1-b]thiazol-6-ylmethyl)urea]",6.00 to 6.30,< 4.52,,,
"Cn1nccc1N(Cc1ccc2ncsc2c1)C(=O)Nc1ccc(C#N)cc1 [Compound 276, 1-(1,3-benzothiazol-6-ylmethyl)-3-(4-cyanophenyl)-1-(2-methyl-iH-pyrazol-3-yl) urea]",5.30 to 6.00,< 4.52,,,
"Cc1ccc(CN(C(=O)Nc2ccc(Cl)cc2)c2conc2C)o1 [Compound 277, 3-(4-chlorophenyl)-1-[(5-methyl-2-furyl)methyl]-1-(3-methylisoxazol-4-yl)urea]",> 7.00,< 4.52,,,
"COCC#Cc1ccc(NC(=O)N(Cc2ccc(C)o2)c2cnoc2C)cc1 [Compound 279, 3-[4-(3-methoxyprop-1-ynyl)phenyl]-1-[(5-methyl-2-furyl)methyl]-1-(5-methylisoxazol-4-yl)urea]",> 7.00,< 4.52,,,
